Data reported in PMC6503114, “Application of Antimicrobial Peptides of the Innate Immune System in Combination With Conventional Antibiotics—A Novel Way to Combat Antibiotic Resistance?” (Frontiers in Cellular and Infection Microbiology, 2019).
Where two headings read alike, the source gives them in different places. Marks after values point to notes of the source that are not given here.

Experiments:
A. baumannii 7226/16 [1] = assay: microbe, parasite or virus in culture; format: cell-based; conditions: Acinetobacter baumannii; A. baumannii 7226/16, drug-resistant clinical isolate
Protocol: (§1) Prior to the “checkerboard” synergy test the minimal inhibitory concentrations (MIC) of individual substances were determined using broth microdilution assay. Testing was performed in 60-well polystyrene Terasaki microplates with V-shaped bottom generally according to the guidelines of the European Committee for Antimicrobial Susceptibility Testing with subtle modifications designed for AMP testing (Tossi et al., [1997]; Wiegand et al., [2008]). Cultivation of bacteria was carried out in 2.1% Müller-Hinton broth at 37°C with shaking. Two-fold serial dilutions of peptides, antibiotics and other antimicrobials were made with 10 mM sodium phosphate buffer, pH 7.4, containing 0.1% of BSA. The plates were preliminary incubated with 0.1% BSA for 1 h at 37°C to reduce a non-specific binding of peptides to the plates. After that BSA was removed, and serial dilutions were added into the plate wells in triplicates followed by the same volume of the suspension of bacterial cells in logarithmic phase of growth in concentration of 1 × 10^6 CFU/ml. After the 18 h overnight incubation at 37°C, the MIC value for each compound was determined as its lowest concentration completely inhibiting the visible growth of bacteria. The final results were calculated as median values based on 3–6 independent experiments.

E. coli ESBL 521/17 [2] = assay: microbe, parasite or virus in culture; format: cell-based; conditions: Escherichia coli, ESBL521/17; E. coli ESBL 521/17, drug-resistant clinical isolate; square brackets = twice the maximal tested concentration
Protocol: as §1

[3] = tested on: K. pneumoniae ESBL 344/17; assay: microbe, parasite or virus in culture; format: cell-based; conditions: Klebsiella pneumoniae, ESBL344/17; K. pneumoniae ESBL 344/17, drug-resistant clinical isolate
Protocol: as §1

P. aeruginosa MDR 522/17 [4] = assay: microbe, parasite or virus in culture; format: cell-based; conditions: Pseudomonas aeruginosa, MDR522/17; P. aeruginosa MDR 522/17, drug-resistant clinical isolate
Protocol: as §1

S. aureus 1399/17 [5] = assay: microbe, parasite or virus in culture; format: cell-based; conditions: Staphylococcus aureus; S. aureus 1399/17, drug-resistant clinical isolate; read-out: MIC
Protocol: as §1

E. coli ESBL 521/17 [6] = assay: Checkerboard titration (FICI); format: cell-based, Escherichia coli
Protocol: (§2) The combined antimicrobial action of AMPs and other antimicrobial compounds was assessed using checkerboard titration approach under the conditions similar to that of the microdilution assay. According to checkerboard titration template, one component (A) of the combination was diluted along the rows of the plate, while the other (B) was diluted down the columns, thereby creating the variety of mixtures with different concentrations of tested compounds. 2.5 μl of corresponding solutions of the components A and B were added into each well of the plate. Into the first column and the last row the same amount of 10 mM sodium phosphate buffer, pH 7.4, containing 0.1% of BSA was introduced instead of the second component. Thus, all wells contained 5 μl of antimicrobial compounds solutions (solo or in combination). The same volume of bacterial suspension, prepared as described for microdilution assay, was added into each well. The results were recorded after the overnight incubation, visually indicating the presence or absence of the microbial growth in the corresponding wells. Based on the obtained data the isobolograms of combined action were plotted and/or Fractional Inhibitory Concentration Indices (FICI) were calculated. […] Depending on the minimal value of the FICI the combined effect of the combination was classified as antagonism (FICI > 2), independent action (1 < FICI ≤ 2), additivity (0.5 < FICI ≤ 1) or synergy (FICI ≤ 0.5), as is recommended in the literature and due to some drawbacks of the serial dilution method (Hsieh et al., [1993]; Orhan et al., [2005]; Fehri et al., [2007]). FICIs were assessed in 3–6 independent experiments and median values were used to define the nature of interaction.

A. baumannii 7226/16 [7] = assay: Checkerboard titration (FICI); format: cell-based, Acinetobacter baumannii
Protocol: as §2

P. aeruginosa MDR 522/17 [8] = assay: Checkerboard titration (FICI); format: cell-based, Pseudomonas aeruginosa
Protocol: as §2

[9] = tested on: K. pneumoniae ESBL 344/17; assay: Checkerboard titration (FICI); format: cell-based, Klebsiella pneumoniae
Protocol: as §2

S. aureus 1399/17 [10] = assay: Checkerboard titration (FICI); format: cell-based, Staphylococcus aureus
Protocol: as §2

bacteria = assay: Checkerboard titration, synergy cases with conventional antibiotics (all tested bacteria); format: cell-based; conditions: in vitro, human AMPs
Protocol: as §2, with “According” for “The combined antimicrobial action of AMPs and other antimicrobial compounds was assessed using checkerboard titration approach under the conditions similar to that of the microdilution assay. According”

E. coli ML-35p = format: cell-based, Escherichia coli
Protocol: as §2, with “According” for “The combined antimicrobial action of AMPs and other antimicrobial compounds was assessed using checkerboard titration approach under the conditions similar to that of the microdilution assay. According”

[11] = tested on: A. baumannii (clin. isol.); format: cell-based, Acinetobacter baumannii; conditions: AMP in combination with GEN (gentamicin)
Protocol: According to checkerboard titration template, one component (A) of the combination was diluted along the rows of the plate, while the other (B) was diluted down the columns, thereby creating the variety of mixtures with different concentrations of tested compounds. 2.5 μl of corresponding solutions of the components A and B were added into each well of the plate. Into the first column and the last row the same amount of 10 mM sodium phosphate buffer, pH 7.4, containing 0.1% of BSA was introduced instead of the second component. Thus, all wells contained 5 μl of antimicrobial compounds solutions (solo or in combination). The same volume of bacterial suspension, prepared as described for microdilution assay, was added into each well. The results were recorded after the overnight incubation, visually indicating the presence or absence of the microbial growth in the corresponding wells. Based on the obtained data the isobolograms of combined action were plotted and/or Fractional Inhibitory Concentration Indices (FICI) were calculated. […] FICIs were assessed in 3–6 independent experiments and median values were used to define the nature of interaction.

MRSA ATCC 33591 = format: cell-based, Staphylococcus aureus
Protocol: as §2, with “According” for “The combined antimicrobial action of AMPs and other antimicrobial compounds was assessed using checkerboard titration approach under the conditions similar to that of the microdilution assay. According”

M. luteus CIP A270 = format: cell-based, Micrococcus luteus
Protocol: as §2, with “According” for “The combined antimicrobial action of AMPs and other antimicrobial compounds was assessed using checkerboard titration approach under the conditions similar to that of the microdilution assay. According”

[12] = antibiotic in combination with ChBac3.4
[13] = antibiotic in combination with PG-1
[14] = AMP in combination with GEN (gentamicin)
[15] = AMP in combination with PMB (polymyxin B)
[16] = AMP in combination with RIF (rifampicin)
[17] = AMP in combination with OX (oxacillin)

| Molecule | MIC (A. baumannii 7226/16 [1]) [µM] | MIC (E. coli ESBL 521/17 [2]) [µM] | MIC [3] [µM] | MIC (P. aeruginosa MDR 522/17 [4]) [µM] | MIC (S. aureus 1399/17 [5]) [µM] | Minimal FICI (E. coli ESBL 521/17 [6]; [12]) | Minimal FICI (E. coli ESBL 521/17 [6]; [13]) | Minimal FICI (A. baumannii 7226/16 [7]; [12]) | Minimal FICI (A. baumannii 7226/16 [7]; [13]) | Minimal FICI (P. aeruginosa MDR 522/17 [8]; [12]) | Minimal FICI (P. aeruginosa MDR 522/17 [8]; [13]) | Minimal FICI [9, 12] | Minimal FICI [9, 13] | Minimal FICI (S. aureus 1399/17 [10]; [12]) | Minimal FICI (S. aureus 1399/17 [10]; [13]) | other results |
| --- | --- | --- | --- | --- | --- | --- | --- | --- | --- | --- | --- | --- | --- | --- | --- | --- |
| Cc1onc(-c2ccccc2)c1C(=O)N[C@@H]1C(=O)N2[C@@H]1SC(C)(C)[C@@H]2C(=O)O [Oxacillin] | > 50 | > 50 | > 50 | > 50 | > 50 | 1.12 | 1.12 | 1.12 | 0.75 | 1.12 | 1.12 | 1.12 | 1.12 | 0.25^* | 1.12 | – |
| CC1COc2c(N3CCN(C)CC3)c(F)cc3c(=O)c(C(=O)O)cn1c23 (centres unmarked) [Ofloxacin] | 25 | 50 | 0.25 | > 50 | > 50 | 0.75 | 0.75 | 0.5^* | 0.62 | 0.75 | 1.12 | 0.75 | 0.5 | 0.125^* | 0.56 | – |
| CC[C@H](C)[C@H](NC(=O)[C@H](CCCCN)NC(=O)[C@H](CCC(=O)O)NC(=O)[C@H](CCCCN)NC(=O)[C@H](CO)NC(=O)[C@H](CCCCN)NC(=O)[C@H](CCCNC(=N)N)NC(=O)[C@H](Cc1ccccc1)NC(=O)[C@H](Cc1ccccc1)NC(=O)[C@H](CC(=O)O)NC(=O)CNC(=O)[C@H](CC(C)C)NC(=O)[C@@H](N)CC(C)C)C(=O)NCC(=O)N[C@@H](CCCCN)C(=O)N[C@@H](CCC(=O)O)C(=O)N[C@@H](Cc1ccccc1)C(=O)N[C@@H](CCCCN)C(=O)N[C@@H](CCCNC(=N)N)C(=O)N[C@H](C(=O)N[C@H](C(=O)N[C@@H](CCC(N)=O)C(=O)N[C@@H](CCCNC(=N)N)C(=O)N[C@H](C(=O)N[C@@H](CCCCN)C(=O)N[C@@H](CC(=O)O)C(=O)N[C@@H](Cc1ccccc1)C(=O)N[C@@H](CC(C)C)C(=O)N[C@@H](CCCNC(=N)N)C(=O)N[C@@H](CC(N)=O)C(=O)N[C@@H](CC(C)C)C(=O)N[C@H](C(=O)N1CCC[C@H]1C(=O)N[C@@H](CCCNC(=N)N)C(=O)N[C@H](C(=O)N[C@@H](CCC(=O)O)C(=O)N[C@@H](CO)C(=O)O)[C@@H](C)O)C(C)C)[C@@H](C)CC)C(C)C)[C@@H](C)CC [LL-37] | – | – | – | – | – | – | – | – | – | – | – | – | – | – | – | AMP concentration in synergy cases with conventional antibiotics (bacteria): around 150 nM |
| Lysozyme: egg white lysozyme, antimicrobial protein, from BioChemica | – | – | – | – | – | – | – | – | – | – | – | – | – | – | – | Minimal FICI (E. coli ML-35p; [14]): 0.53; Minimal FICI (E. coli ML-35p; [15]): 0.25; Minimal FICI (E. coli ML-35p; [16]): 0.62; Minimal FICI [11]: 0.75; Minimal FICI (MRSA ATCC 33591; [14]): 0.53; Minimal FICI (MRSA ATCC 33591; [17]): 0.53; Minimal FICI (MRSA ATCC 33591; [15]): 0.56; Minimal FICI (MRSA ATCC 33591; [16]): 0.62; Minimal FICI (M. luteus CIP A270; [14]): 0.62; Minimal FICI (M. luteus CIP A270; AMP in combination with OFL (ofloxacin)): 0.62; Minimal FICI (M. luteus CIP A270; [17]): 0.75; Minimal FICI (M. luteus CIP A270; [15]): 0.62; Minimal FICI (M. luteus CIP A270; [16]): 0.75 |
